In US20140224680A1, “KIT-OF-PARTS” (BOEHRINGER INGELHEIM VETMEDICA GMBH, priority 2013, published 2014) one finds lipophilicity data, which are given here for one molecule.

This series in a line: lipophilicity profile. It is filed as physicochemical. The following applies: neutral pH values versus acidic pH values. An excerpt:
Usually, EC/HPMC films show sustained release behavior more or less independent of pH. […] This, together with the coating applied, is expected to result in a slower release at neutral pH values, sufficient to use the respective multi-layered particles for the application of this drug for the treatment of animals like cats.

Where a name gives a salt, the structure may show the parent alone.

Turning to `COc1ccc(CCN2CCC[C@H](CN3CCc4cc(OC)c(OC)cc4CC3=O)C2)cc1OC` [cilobradine hydrochloride], the lipophilicity result is listed as “slightly more lipophilic at neutral pH values than at acidic pH values”.
